The values below are quoted from earlier work in article PMC4221044, “Antimicrobial GL13K Peptide Coatings Killed and Ruptured the Wall of Streptococcus gordonii and Prevented Formation and Growth of Biofilms” (PLoS ONE, 2014).

Data set [1] relates to planktonic Pseudonomas aeruginosa. As to conditions: peptide in solution. An excerpt:
(§1) Functionalization of titanium surfaces with coatings made of antimicrobial agents has recently been explored to inhibit peri-implant infections. The coatings can contain nanoparticles of pure elements, [5]; sanitizing agents and disinfectants; and antibiotics as well as antimicrobial peptides. Gentamicin [7]–[9] and Vancomycin [10]–[13] have been coated on Ti surfaces for protecting from infection dental and orthopedic implants.

In data set [2] the test system is Pseudonomas aeruginosa biofilms. As to conditions: 100 µg/ml GL13K.
From the text: as §1

In data set [3] the test system is Streptococcus gordonii. The following applies: 100 µg/ml GL13K.
From the text: as §1

The MIC is the least concentration at which growth counts as inhibited. On to “GKIIKLKASLKLL-NH2 [GL13K, antimicrobial peptide …-NH2 derived from the human salivary protein BPIFA2]”, for which the MIC in data set [1] was 8 µg/mL. Besides, the reduction of biofilms entry in data set [2] is given as “three orders of magnitude”. The bacteria killed in data set [3] is 100%.
